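All cell lines were grown in 96-well plates and treated with compound for 48 hours. At the GI50, growth is halved. The concentration for full growth arrest is given as TGI.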 Where only a bound is given, the exact number is not on record here.

This passage reports TGI and GI50 results from PubChem BioAssay (NCI).

Among the test systems are T-47D breast; MCF7 breast; PC-3 prostate; MDA-MB-435; MDA-MB-231 breast; BT-549 breast.
Assay in all cases: NCI-60 cell line screen, 48 h

For `O=C1CC=C2C3CC4N(CCC45c4ccccc4N1C25)C/C3=C\CO` (configuration not stated), the TGI in the assay on T-47D breast, in the assay with MCF7 breast, with PC-3 prostate, in the assay on MDA-MB-435, in the assay with MDA-MB-231 breast and in the assay on BT-549 breast was greater than 100 µM in each case.

As for `COc1ccc2c(c1)C(=O)/C(=C/c1ccc(O)cc1)O2`, the GI50 with T-47D breast is 7.27 µM; in the assay with MCF7 breast, 4.93 µM; in the assay on PC-3 prostate, 9.48 µM; in the assay on MDA-MB-435, 6.73 µM; in the assay on MDA-MB-231 breast it was 14.2 µM; with BT-549 breast it was 12.7 µM. In addition, the TGI in the assay on T-47D breast was 37.6 µM; in the assay with MCF7 breast it was 18.3 µM; in the assay with PC-3 prostate, 24.7 µM; in the assay with MDA-MB-435, 20.5 µM; with MDA-MB-231 breast, 28.8 µM; in the assay with BT-549 breast, 29.8 µM.

For the compound `CCCCCCCC(=O)Nc1nc2[nH]c(CN3CCN(Cc4cccc(I)c4)CC3)c(CN3CCN(Cc4cccc(I)c4)CC3)c2c(=O)[nH]1`, the GI50 in the assay on T-47D breast was 0.993 µM; in the assay on MCF7 breast, 0.793 µM; in the assay on PC-3 prostate, 0.837 µM; with MDA-MB-435, 0.823 µM; with MDA-MB-231 breast, 0.875 µM; in the assay with BT-549 breast, 0.885 µM. Further, the TGI in the assay on T-47D breast came out at 2.18 µM; in the assay on MCF7 breast, 1.51 µM; in the assay on PC-3 prostate, 1.63 µM; in the assay with MDA-MB-435, 1.55 µM; with MDA-MB-231 breast, 1.65 µM; in the assay with BT-549 breast it was 1.83 µM.

Consider `Cc1cccc2c(=O)c3c(sc12)c(NCCCN)nc1ccccc13`, for which the GI50 is 1.5 µM with T-47D breast; 1.11 µM with MCF7 breast; 1.37 µM in the assay on PC-3 prostate; 1.69 µM with MDA-MB-435; 1.52 µM in the assay with MDA-MB-231 breast; 2.6 µM with BT-549 breast. Moreover, the TGI in the assay on T-47D breast was determined as 3.44 µM; in the assay with MCF7 breast, 2.57 µM; in the assay with PC-3 prostate, 3.04 µM; in the assay with MDA-MB-435 it was 3.17 µM; in the assay with MDA-MB-231 breast it was 3.03 µM; in the assay on BT-549 breast it was 12.6 µM.

Regarding `CCOc1ccc(Nc2ccnc3cc(Cl)ccc23)cc1`, the GI50 in the assay with T-47D breast is greater than 100 µM; in the assay on MCF7 breast it was 34.5 µM; with PC-3 prostate, greater than 100 µM; in the assay on MDA-MB-435 it was greater than 100 µM; in the assay with MDA-MB-231 breast it was greater than 100 µM; with BT-549 breast, greater than 100 µM. Further, the TGI in the assay with T-47D breast, in the assay on MCF7 breast, in the assay with PC-3 prostate, with MDA-MB-435, with MDA-MB-231 breast and in the assay with BT-549 breast was greater than 100 µM each time.

For the compound `O=c1oc2ccc(F)cc2c(=O)n1-c1ccc(I)cc1F`, the GI50 with T-47D breast was 0.29 µM; in the assay with MCF7 breast, 0.762 µM; with PC-3 prostate, 1.48 µM; in the assay with MDA-MB-435, 0.419 µM; with MDA-MB-231 breast, 0.614 µM; in the assay on BT-549 breast, 0.486 µM. Also, the TGI was found to be 9.24 µM in the assay with T-47D breast; 9.03 µM in the assay on MCF7 breast; 6.58 µM with PC-3 prostate; 3.94 µM with MDA-MB-435; 3.61 µM in the assay on MDA-MB-231 breast; 4.09 µM in the assay with BT-549 breast.

For the compound `COc1cc(OCCCN2CCCC2)ccc1Nc1ncc(Cl)c(Nc2ccccc2P(C)(C)=O)n1`, the GI50 with T-47D breast was 8.71 µM; in the assay on MCF7 breast, 0.867 µM; in the assay on PC-3 prostate, 4.11 µM; with MDA-MB-435, 1.65 µM; with MDA-MB-231 breast, 1.56 µM; in the assay with BT-549 breast, 3.86 µM. Besides, the TGI is 54.3 µM with T-47D breast; 19.3 µM in the assay on MCF7 breast; 49.6 µM with PC-3 prostate; greater than 42.6 µM with MDA-MB-435; 11.7 µM with MDA-MB-231 breast; 11.7 µM with BT-549 breast.

On to `N#Cc1c(N)c(C(=O)c2ccc3c(c2)OCCO3)n2c1CCCC2`, for which the GI50 is 4.38 µM in the assay on T-47D breast; 2.28 µM in the assay with MCF7 breast; 4.32 µM with PC-3 prostate; 0.362 µM in the assay on MDA-MB-435; 6.47 µM in the assay on MDA-MB-231 breast; 4.8 µM in the assay with BT-549 breast. Besides, the TGI with T-47D breast was greater than 100 µM; with MCF7 breast, greater than 100 µM; with PC-3 prostate, greater than 100 µM; with MDA-MB-435, 2.07 µM; in the assay with MDA-MB-231 breast, greater than 100 µM; in the assay on BT-549 breast it was greater than 100 µM.

Regarding `COc1ccc2c(c1)/C(=C\c1c(-c3ccccc3)nc3sccn13)C(=O)N2`, the GI50 was 8.33 µM in the assay on T-47D breast; greater than 100 µM in the assay on MCF7 breast; 9.55 µM in the assay with PC-3 prostate; 0.04 µM in the assay on MDA-MB-435; 6.92 µM with MDA-MB-231 breast; 3 µM in the assay with BT-549 breast. The TGI in the assay on T-47D breast is 30.9 µM; in the assay with MCF7 breast it was greater than 100 µM; in the assay on PC-3 prostate it was greater than 35.6 µM; in the assay with MDA-MB-435, 0.287 µM; in the assay with MDA-MB-231 breast it was 23.5 µM; in the assay on BT-549 breast, 13.9 µM.

As for `O=C(O)c1nn(-c2ccc(Cl)cc2)c2c1C(=O)c1ccccc1C2=O`, the TGI with T-47D breast, in the assay with MCF7 breast, with PC-3 prostate, with MDA-MB-435, in the assay on MDA-MB-231 breast and with BT-549 breast was greater than 100 µM each time.

`Cc1cc(C)c([I+]c2c(C)cc(C)cc2C)c(C)c1`: the GI50 in the assay on T-47D breast was 0.406 µM; in the assay with MCF7 breast, 0.325 µM; with PC-3 prostate, 0.259 µM; in the assay with MDA-MB-435 it was 0.327 µM; in the assay with MDA-MB-231 breast it was 0.371 µM; in the assay on BT-549 breast it was 0.466 µM. Also, the TGI in the assay on T-47D breast was 2.19 µM; in the assay on MCF7 breast it was 1.46 µM; in the assay on PC-3 prostate it was 1.14 µM; in the assay with MDA-MB-435, 1.24 µM; in the assay with MDA-MB-231 breast, 1.38 µM; in the assay on BT-549 breast it was 1.59 µM.

For `COc1ccc(Cc2ccc3[nH]c(=O)cc(C)c3c2)cc1S(=O)(=O)O`, the TGI with T-47D breast, in the assay with MCF7 breast, with PC-3 prostate, in the assay with MDA-MB-435, in the assay with MDA-MB-231 breast and with BT-549 breast was greater than 100 µM each time.

For `CC1(C)CC[C@]2(C(=O)NCCNCCN)CC[C@]3(C)C(=CC[C@@H]4[C@@]5(C)CCC(=O)C(C)(C)[C@@H]5CC[C@]43C)[C@@H]2C1`, the GI50 was 1.88 µM with T-47D breast; 1.55 µM with MCF7 breast; 1.82 µM with PC-3 prostate; 1.75 µM with MDA-MB-435; 1.82 µM in the assay with MDA-MB-231 breast; 1.56 µM with BT-549 breast. The TGI in the assay with T-47D breast was 3.95 µM; in the assay on MCF7 breast, 3.08 µM; in the assay with PC-3 prostate, 3.61 µM; in the assay on MDA-MB-435, 3.19 µM; in the assay with MDA-MB-231 breast, 3.35 µM; with BT-549 breast, 3.26 µM.

Consider `Cn1cc(-c2ncnc3ccc(-c4cnc(Cl)c(NS(C)(=O)=O)c4)cc23)c2ccccc21`, for which the GI50 was 0.0944 µM in the assay with T-47D breast; 0.205 µM in the assay with MCF7 breast; 0.361 µM in the assay on PC-3 prostate; 0.514 µM in the assay on MDA-MB-435; 1.84 µM with MDA-MB-231 breast; 0.566 µM in the assay on BT-549 breast. Moreover, the TGI was 0.691 µM in the assay on T-47D breast; greater than 100 µM in the assay on MCF7 breast; 26.1 µM with PC-3 prostate; 10.8 µM in the assay with MDA-MB-435; 26.4 µM in the assay with MDA-MB-231 breast; 7.68 µM in the assay on BT-549 breast.

As to `OCC#Cc1ccccc1C#Cc1ccc(C#Cc2ccccc2C#CCO)cc1`, the GI50 with T-47D breast was greater than 100 µM; in the assay with MCF7 breast, 26.3 µM; with PC-3 prostate it was 30.7 µM; in the assay with MDA-MB-435, greater than 100 µM; in the assay with MDA-MB-231 breast it was 25.5 µM; with BT-549 breast it was 0.68 µM. Moreover, the TGI is greater than 100 µM with T-47D breast; greater than 100 µM with MCF7 breast; greater than 100 µM in the assay on PC-3 prostate; greater than 100 µM in the assay on MDA-MB-435; 58.1 µM with MDA-MB-231 breast; 32.2 µM in the assay with BT-549 breast.

Take `CCC(CO)Nc1nc(NCc2ccccc2)c2n[nH]c(C(C)C)c2n1` (configuration not stated): the GI50 in the assay with T-47D breast was 16 µM; with MCF7 breast it was 5.92 µM; in the assay with PC-3 prostate it was 7.01 µM; in the assay with MDA-MB-435, 10 µM; with MDA-MB-231 breast it was 15.8 µM; in the assay on BT-549 breast it was 10.7 µM. For the same compound, the TGI in the assay with T-47D breast came to 41.2 µM; in the assay with MCF7 breast it was 25.9 µM; in the assay with PC-3 prostate, 31.5 µM; in the assay with MDA-MB-435, 24 µM; in the assay with MDA-MB-231 breast, 35.3 µM; in the assay on BT-549 breast, 23.7 µM.

For `C#Cc1cccc(Nc2nc(C)nc3cc(NC(=O)CCl)ccc23)c1`, the GI50 in the assay with T-47D breast is 3.17 µM; in the assay on MCF7 breast, 0.836 µM; with PC-3 prostate, 2.53 µM; in the assay on MDA-MB-435 it was 1.49 µM; in the assay on MDA-MB-231 breast, 0.886 µM; with BT-549 breast, 1.32 µM. The TGI with T-47D breast came out at 7.69 µM; in the assay on MCF7 breast it was 4.05 µM; in the assay with PC-3 prostate, 6.16 µM; in the assay with MDA-MB-435 it was 4.75 µM; in the assay on MDA-MB-231 breast, 3.92 µM; in the assay with BT-549 breast, 5.31 µM.

In the case of `C=C[C@@H]1CCC/C=C/[C@@H]2C[C@H](O)C[C@H]2[C@H](O)/C=C/C(=O)O1`, the GI50 is 1.21 µM in the assay on T-47D breast; 0.388 µM with MCF7 breast; 0.785 µM with PC-3 prostate; 0.435 µM in the assay on MDA-MB-435; 0.379 µM with MDA-MB-231 breast; 0.543 µM in the assay with BT-549 breast. Besides, the TGI in the assay on T-47D breast is 4.28 µM; in the assay with PC-3 prostate, greater than 100 µM; in the assay on MDA-MB-435, greater than 100 µM; in the assay with MDA-MB-231 breast it was 1.11 µM; in the assay on BT-549 breast, greater than 37.1 µM.
